In patent US20090004683A1, “Indicator Agent for Noninflammatory Stress Response and Use Thereof” (priority 2004, published 2009):

Tests used:
Assay type in all cases: in vivo, mouse
ACTH = assay: Blood ACTH after IL-18 administration; conditions: C57B/6 mice, 1.5 μg IL-18 intravenously; FIG. 13A
Description: (§1) 1.5 μg of IL-18 prepared by genetic recombination technology was intravenously injected to C57B/6 mice, and thereafter ACTH, FSH and LH levels in blood were examined. […] FIGS. 13B and 13C show FSH and LH levels in plasma collected from mice 1 hour after IL-18 administration. It was shown that the concentrations of FSH and LH in plasma rose with the administration of IL-18.

FSH = assay: Plasma FSH after IL-18 administration; conditions: C57B/6 mice, 1.5 μg IL-18 intravenously, 1 hour after administration; FIG. 13B
Description: as §1

LH = assay: Plasma LH after IL-18 administration; conditions: C57B/6 mice, 1.5 μg IL-18 intravenously, 1 hour after administration; FIG. 13C
Description: as §1

IL-18: IL-18 prepared by genetic recombination technology
rose: blood ACTH concentration (ACTH) | concentration of FSH in plasma (FSH) | concentration of LH in plasma (LH)
